Measured values published in PubChem BioAssay (NCI).
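Following 48 hours of exposure in 96-well plates, responses at five concentrations were used to interpolate endpoints linearly. At the TGI there is no net growth.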

Experiments:
Test in all cases: growth of human tumour cells (NCI), 48 h
COLO 205 colon = test system: COLO 205 colon
NCI-H23 lung = test system: NCI-H23 lung
EKVX NSCLC = test system: EKVX NSCLC
786-0 renal = test system: 786-0 renal
SNB-19 CNS = test system: SNB-19 CNS
HCT-15 colon = test system: HCT-15 colon
OVCAR-8 ovarian = test system: OVCAR-8 ovarian
DU-145 prostate = test system: DU-145 prostate
UO-31 renal = test system: UO-31 renal
A498 renal = test system: A498 renal
HL-60(TB) leukemia = test system: HL-60(TB) leukemia
SN12C renal = test system: SN12C renal
RXF 393 renal = test system: RXF 393 renal
SF-539 CNS = test system: SF-539 CNS
SK-MEL-5 melanoma = test system: SK-MEL-5 melanoma
SK-MEL-2 melanoma = test system: SK-MEL-2 melanoma
SK-MEL-28 melanoma = test system: SK-MEL-28 melanoma
RPMI-8226 leukemia = test system: RPMI-8226 leukemia
NCI-H460 lung = test system: NCI-H460 lung
UACC-62 melanoma = test system: UACC-62 melanoma
LOX IMVI melanoma = test system: LOX IMVI melanoma
SF-268 CNS = test system: SF-268 CNS
M14 melanoma = test system: M14 melanoma
IGROV1 ovarian = test system: IGROV1 ovarian
CAKI-1 renal = test system: CAKI-1 renal
HOP-62 NSCLC = test system: HOP-62 NSCLC
SK-OV-3 ovarian = test system: SK-OV-3 ovarian
SR leukemia = test system: SR leukemia
OVCAR-3 ovarian = test system: OVCAR-3 ovarian
OVCAR-4 ovarian = test system: OVCAR-4 ovarian
HCT-116 colon = test system: HCT-116 colon
U251 CNS = test system: U251 CNS
MDA-N = test system: MDA-N
ACHN renal = test system: ACHN renal
NCI/ADR-RES ovarian = test system: NCI/ADR-RES ovarian
SNB-75 CNS = test system: SNB-75 CNS
KM12 colon = test system: KM12 colon
OVCAR-5 ovarian = test system: OVCAR-5 ovarian
NCI-H226 lung = test system: NCI-H226 lung
K-562 leukemia = test system: K-562 leukemia
HS 578T breast = test system: HS 578T breast
HT29 colon = test system: HT29 colon
MCF7 breast = test system: MCF7 breast
BT-549 breast = test system: BT-549 breast
MDA-MB-435 = test system: MDA-MB-435
MDA-MB-231 breast = test system: MDA-MB-231 breast
CCRF-CEM leukemia = test system: CCRF-CEM leukemia
PC-3 prostate = test system: PC-3 prostate
SF-295 CNS = test system: SF-295 CNS
HCC-2998 colon = test system: HCC-2998 colon
UACC-257 melanoma = test system: UACC-257 melanoma
TK-10 renal = test system: TK-10 renal
SW-620 colon = test system: SW-620 colon
A549 NSCLC = test system: A549 NSCLC
MOLT-4 leukemia = test system: MOLT-4 leukemia
T-47D breast = test system: T-47D breast

SMILES: CC(C)(C)[Si](C)(C)OC1(CCc2ccccc2OS(=O)(=O)C(F)(F)F)CCCC=C1COCc1ccccc1 (stereo unspecified)
- TGI (COLO 205 colon): > 100 µM
- TGI (NCI-H23 lung): > 100 µM
- TGI (EKVX NSCLC): > 100 µM
- TGI (786-0 renal): > 100 µM
- TGI (SNB-19 CNS): > 100 µM
- TGI (HCT-15 colon): > 100 µM
- TGI (OVCAR-8 ovarian): > 100 µM
- TGI (DU-145 prostate): > 100 µM
- TGI (UO-31 renal): > 100 µM
- TGI (A498 renal): > 100 µM
- TGI (HL-60(TB) leukemia): > 55.3 µM
- TGI (SN12C renal): > 100 µM
- TGI (RXF 393 renal): 90.8 µM
- TGI (SF-539 CNS): > 100 µM
- TGI (SK-MEL-5 melanoma): > 100 µM
- TGI (SK-MEL-2 melanoma): > 100 µM
- TGI (SK-MEL-28 melanoma): > 100 µM
- TGI (RPMI-8226 leukemia): > 52.7 µM
- TGI (NCI-H460 lung): > 100 µM
- TGI (UACC-62 melanoma): > 53 µM
- TGI (LOX IMVI melanoma): > 100 µM
- TGI (SF-268 CNS): > 100 µM
- TGI (M14 melanoma): > 100 µM
- TGI (IGROV1 ovarian): > 100 µM
- TGI (CAKI-1 renal): > 100 µM
- TGI (HOP-62 NSCLC): > 100 µM
- TGI (SK-OV-3 ovarian): > 100 µM
- TGI (SR leukemia): > 100 µM
- TGI (OVCAR-3 ovarian): > 100 µM
- TGI (OVCAR-4 ovarian): > 100 µM
- TGI (HCT-116 colon): > 100 µM
- TGI (U251 CNS): > 100 µM
- TGI (MDA-N): > 100 µM
- TGI (ACHN renal): > 50.9 µM
- TGI (NCI/ADR-RES ovarian): > 100 µM
- TGI (SNB-75 CNS): > 100 µM
- TGI (KM12 colon): > 100 µM
- TGI (OVCAR-5 ovarian): > 100 µM
- TGI (NCI-H226 lung): > 100 µM
- TGI (K-562 leukemia): > 100 µM
- TGI (HS 578T breast): > 100 µM
- TGI (HT29 colon): > 100 µM
- TGI (MCF7 breast): > 54.8 µM
- TGI (BT-549 breast): > 100 µM
- TGI (MDA-MB-435): > 100 µM
- TGI (MDA-MB-231 breast): > 100 µM
- TGI (CCRF-CEM leukemia): > 76.4 µM
- TGI (PC-3 prostate): > 100 µM
- TGI (SF-295 CNS): > 100 µM
- TGI (HCC-2998 colon): > 100 µM
- TGI (UACC-257 melanoma): > 100 µM
- TGI (TK-10 renal): > 100 µM
- TGI (SW-620 colon): > 100 µM
- TGI (A549 NSCLC): > 100 µM
- TGI (MOLT-4 leukemia): > 62.3 µM
- TGI (T-47D breast): > 100 µM
